# In patent US9546164B2 (GENENTECH, INC., priority 2013, dated 2017):
# Biological target: hNav1.7 (Homo sapiens (Human), UniProt Q15858)
# Assay: Tritiated sulfonamide competitive binding to membranes from cells expressing hNav1.7 and the β1 subunit;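 note: Filter-bound radioactivity counted by liquid scintillation, nonspecific binding defined with excess unlabelled ligand, IC50 fitted to percent inhibition of specific binding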
# Conditions: not given
# hNav1.7, sequence (Q15858 other isoform, or with tags, fused parts or gaps): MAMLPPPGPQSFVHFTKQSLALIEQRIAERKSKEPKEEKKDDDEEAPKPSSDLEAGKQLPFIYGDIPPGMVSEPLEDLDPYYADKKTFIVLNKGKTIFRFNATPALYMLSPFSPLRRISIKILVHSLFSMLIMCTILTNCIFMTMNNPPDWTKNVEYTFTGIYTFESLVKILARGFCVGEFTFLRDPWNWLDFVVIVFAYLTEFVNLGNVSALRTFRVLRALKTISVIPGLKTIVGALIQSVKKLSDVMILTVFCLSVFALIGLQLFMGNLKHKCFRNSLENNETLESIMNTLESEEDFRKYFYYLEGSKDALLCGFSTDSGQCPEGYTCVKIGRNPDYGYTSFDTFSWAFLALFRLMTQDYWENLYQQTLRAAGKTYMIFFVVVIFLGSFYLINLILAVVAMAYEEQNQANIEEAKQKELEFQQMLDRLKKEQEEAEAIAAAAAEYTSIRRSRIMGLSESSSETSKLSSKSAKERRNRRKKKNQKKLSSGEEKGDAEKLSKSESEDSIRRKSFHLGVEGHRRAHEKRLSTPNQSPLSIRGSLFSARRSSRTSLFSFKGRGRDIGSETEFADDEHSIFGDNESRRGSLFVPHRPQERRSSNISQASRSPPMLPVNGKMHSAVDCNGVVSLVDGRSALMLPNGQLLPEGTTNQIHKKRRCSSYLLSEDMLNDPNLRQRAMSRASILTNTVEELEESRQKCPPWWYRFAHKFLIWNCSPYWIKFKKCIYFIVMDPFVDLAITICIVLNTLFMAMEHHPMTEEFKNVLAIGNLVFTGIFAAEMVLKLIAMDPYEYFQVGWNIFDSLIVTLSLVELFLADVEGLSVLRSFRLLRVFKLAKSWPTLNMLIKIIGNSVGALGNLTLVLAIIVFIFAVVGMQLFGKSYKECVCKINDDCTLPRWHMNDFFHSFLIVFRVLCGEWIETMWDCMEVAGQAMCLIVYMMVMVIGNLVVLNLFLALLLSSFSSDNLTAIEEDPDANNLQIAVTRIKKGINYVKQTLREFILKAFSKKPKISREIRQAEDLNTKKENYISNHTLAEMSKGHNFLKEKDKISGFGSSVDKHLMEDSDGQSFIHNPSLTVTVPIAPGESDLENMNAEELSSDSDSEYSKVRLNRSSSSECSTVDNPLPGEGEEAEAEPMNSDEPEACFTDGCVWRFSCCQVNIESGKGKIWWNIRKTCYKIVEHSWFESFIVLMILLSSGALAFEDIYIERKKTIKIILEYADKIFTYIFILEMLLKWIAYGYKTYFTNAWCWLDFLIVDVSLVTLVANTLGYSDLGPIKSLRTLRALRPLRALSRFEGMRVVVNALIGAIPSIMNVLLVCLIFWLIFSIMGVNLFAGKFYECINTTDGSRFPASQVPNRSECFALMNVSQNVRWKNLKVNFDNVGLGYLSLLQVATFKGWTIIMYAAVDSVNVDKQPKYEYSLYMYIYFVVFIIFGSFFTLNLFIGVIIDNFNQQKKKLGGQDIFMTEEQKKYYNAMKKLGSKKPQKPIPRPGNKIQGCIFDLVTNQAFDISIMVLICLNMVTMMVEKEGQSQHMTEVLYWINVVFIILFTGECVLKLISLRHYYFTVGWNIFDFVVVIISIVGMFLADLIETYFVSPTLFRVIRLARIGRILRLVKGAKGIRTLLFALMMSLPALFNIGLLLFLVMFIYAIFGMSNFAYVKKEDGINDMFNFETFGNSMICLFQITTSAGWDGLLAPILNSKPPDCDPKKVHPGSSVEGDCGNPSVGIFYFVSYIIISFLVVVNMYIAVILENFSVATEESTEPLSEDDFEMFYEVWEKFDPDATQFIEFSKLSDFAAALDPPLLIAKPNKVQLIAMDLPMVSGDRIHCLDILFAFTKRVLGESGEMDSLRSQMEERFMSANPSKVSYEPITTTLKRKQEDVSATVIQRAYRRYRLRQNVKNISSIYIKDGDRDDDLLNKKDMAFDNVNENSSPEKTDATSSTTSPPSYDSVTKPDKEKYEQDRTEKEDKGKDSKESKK
# hNav1.7, sequence (Q07699 19-218 partner): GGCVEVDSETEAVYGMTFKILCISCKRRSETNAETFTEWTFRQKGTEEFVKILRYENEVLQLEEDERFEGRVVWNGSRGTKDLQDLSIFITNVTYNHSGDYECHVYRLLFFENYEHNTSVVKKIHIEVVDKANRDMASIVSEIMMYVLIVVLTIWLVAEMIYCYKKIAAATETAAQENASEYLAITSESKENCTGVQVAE
row,IC50 [nM],Molecule
1,2.1,"C[C@H](c1cc(Cl)cc(Cl)c1)N1CCC[C@@H](Oc2cc(F)c(C(=O)NS(C)(=O)=O)cc2C2CC2)C1 (single isomer, unassigned) [Example 51]"

# Same assay, conditions: read-out: Ligand Binding Assay; 100 pM [3H]compound, membranes with hNav1.7 and β1 subunit, 18 h, room temperature
row,Molecule,IC50 [nM]
1,5-Cyclopropyl-2-fluoro-N-(methylsulfonyl)-4-((1-(1-phenylethyl)-piperidin-4-yl)methoxy)benzamide [Example 146],276
2,"COC[C@H](c1cc(Cl)cc(Cl)c1)N1CCC(COc2cc(F)c(C(=O)NS(C)(=O)=O)cc2C2CC2)CC1 (single isomer, unassigned) [Example 163]",3.6
3,"COC[C@@H](c1cc(Cl)cc(Cl)c1)N1CCC(COc2cc(F)c(C(=O)NS(=O)(=O)N3CCC3)cc2C2CC2)CC1 (single isomer, unassigned) [Example 166]",3.9
4,"C[C@@H](c1cc(F)cc(C(F)(F)F)c1)N1CCC(C)(COc2cc(F)c(C(=O)NS(C)(=O)=O)cc2C2CC2)CC1 (single isomer, unassigned) [Example 171]",5
5,"COC[C@@H](c1cc(Cl)cc(Cl)c1)N1CCC(C)(COc2cc(F)c(C(=O)NS(C)(=O)=O)cc2C2CC2)CC1 (single isomer, unassigned) [Example 172]",3.9
6,"COC[C@H](c1cc(Cl)cc(Cl)c1)N1CCC(C)(COc2cc(F)c(C(=O)NS(C)(=O)=O)cc2C2CC2)CC1 (single isomer, unassigned) [Example 173]",3.9
7,"COC[C@@H](c1ccc(F)c(Cl)c1)N1CCC(COc2cc(F)c(C(=O)NS(C)(=O)=O)cc2C2CC2)CC1 (single isomer, unassigned) [Example 181]",11
8,"COC[C@H](c1ccc(F)c(Cl)c1)N1CCC(COc2cc(F)c(C(=O)NS(C)(=O)=O)cc2C2CC2)CC1 (single isomer, unassigned) [Example 182]",14
9,"C[C@H](c1cc(Cl)cc(Cl)c1)N1CC(C)(COc2cc(F)c(C(=O)NS(C)(=O)=O)cc2C2CC2)C1 (single isomer, unassigned) [Example 185]",7
10,"C[C@@H](c1cc(Cl)cc(Cl)c1)N1CC(C)(COc2cc(F)c(C(=O)NS(C)(=O)=O)cc2C2CC2)C1 (single isomer, unassigned) [Example 186]",4
11,"COC[C@@H](c1ccc(F)c(C(F)(F)F)c1)N1CCC(COc2cc(F)c(C(=O)NS(C)(=O)=O)cc2C2CC2)CC1 (single isomer, unassigned) [Example 187]",5
12,"COC[C@H](c1ccc(F)c(C(F)(F)F)c1)N1CCC(COc2cc(F)c(C(=O)NS(C)(=O)=O)cc2C2CC2)CC1 (single isomer, unassigned) [Example 188]",5.2
13,"COC[C@@](C)(c1cc(Cl)cc(Cl)c1)N1CCC(COc2cc(F)c(C(=O)NS(C)(=O)=O)cc2C2CC2)CC1 (single isomer, unassigned) [Example 201]",5
14,"COC[C@](C)(c1cc(Cl)cc(Cl)c1)N1CCC(COc2cc(F)c(C(=O)NS(C)(=O)=O)cc2C2CC2)CC1 (single isomer, unassigned) [Example 202]",1.6
15,"CCS(=O)(=O)NC(=O)c1cc(C2CC2)c(OCC2CCN([C@](C)(COC)c3cc(Cl)cc(Cl)c3)CC2)cc1F (single isomer, unassigned) [Example 203]",3.6
16,"CCS(=O)(=O)NC(=O)c1cc(C2CC2)c(OCC2CCN([C@@](C)(COC)c3cc(Cl)cc(Cl)c3)CC2)cc1F (single isomer, unassigned) [Example 204]",2.7
17,"COC(C)(C)[C@@H](c1cc(Cl)cc(Cl)c1)N1CCC(COc2cc(F)c(C(=O)NS(C)(=O)=O)cc2C2CC2)CC1 (single isomer, unassigned) [Example 205]",2.5
18,"COC(C)(C)[C@H](c1cc(Cl)cc(Cl)c1)N1CCC(COc2cc(F)c(C(=O)NS(C)(=O)=O)cc2C2CC2)CC1 (single isomer, unassigned) [Example 206]",1.8
19,"CCS(=O)(=O)NC(=O)c1cc(C2CC2)c(OCC2CCN([C@H](c3cc(Cl)cc(Cl)c3)C(C)(C)OC)CC2)cc1F (single isomer, unassigned) [Example 207]",1.7
20,"C[C@@H](c1cc(Cl)cc(Cl)c1)N1CCC(C)(COc2cc(F)c(C(=O)NS(C)(=O)=O)cc2C2CC2)CC1 (single isomer, unassigned) [Example 211]",1.7
21,"C[C@H](c1cc(Cl)cc(Cl)c1)N1CCC(C)(COc2cc(F)c(C(=O)NS(C)(=O)=O)cc2C2CC2)CC1 (single isomer, unassigned) [Example 212]",2.7
22,"C[C@H](c1ccc(Cl)c(Cl)c1)N1CCC(COc2cc(F)c(C(=O)NS(C)(=O)=O)cc2C2CC2)CC1 (single isomer, unassigned) [Example 214]",3.1
23,"C[C@H](c1ccc(Cl)c(Cl)c1)N1CCC(C)(COc2cc(F)c(C(=O)NS(C)(=O)=O)cc2C2CC2)CC1 (single isomer, unassigned) [Example 218]",7.8
24,"C[C@@H](c1ccc(Cl)c(Cl)c1)N1CCC(C)(COc2cc(F)c(C(=O)NS(C)(=O)=O)cc2C2CC2)CC1 (single isomer, unassigned) [Example 219]",8.3
25,"CS(=O)(=O)NC(=O)c1cc(C2CC2)c(OCC2CCN([C@@H](c3cc(Cl)cc(Cl)c3)C(F)F)CC2)cc1F (single isomer, unassigned) [Example 224]",4.5
26,"C[C@H](c1cc(F)cc(Cl)c1)N1CCC(COc2cc(F)c(C(=O)NS(C)(=O)=O)cc2C2CC2)CC1 (single isomer, unassigned) [Example 230]",4.4
27,"C[C@@H](c1cc(F)cc(Cl)c1)N1CCC(COc2cc(F)c(C(=O)NS(C)(=O)=O)cc2C2CC2)CC1 (single isomer, unassigned) [Example 231]",5.9
28,"CS(=O)(=O)NC(=O)c1cc(C2CC2)c(OC[C@@H]2CCN(Cc3cc(Cl)cc(Cl)c3)C(=O)C2)cc1F (single isomer, unassigned) [Example 234]",170
29,"CS(=O)(=O)NC(=O)c1cc(C2CC2)c(OC[C@H]2CCN(Cc3cc(Cl)cc(Cl)c3)C(=O)C2)cc1F (single isomer, unassigned) [Example 235]",210

# Next, values leading:
row,IC50 [nM],Molecule
1,5.4,5-cyclopropyl-2-fluoro-N-(methylsulfonyl)-4-((1-(6-(trifluoromethyl)pyridin-2-yl)piperidin-4-yl)methoxy)benzamide [Example 592]
2,2.9,"C[C@H](c1cc(Cl)cc(Cl)c1F)N1CCC(COc2cc(F)c(C(=O)NS(C)(=O)=O)cc2C2CC2)CC1 (single isomer, unassigned) [Example 237]"
3,7.9,"CCS(=O)(=O)NC(=O)c1cc(C2CC2)c(OCC2CCN([C@@H](C)c3ccc(F)cc3Cl)CC2)cc1F (single isomer, unassigned) [Example 245]"
4,7.7,"CCS(=O)(=O)NC(=O)c1cc(C2CC2)c(OCC2CCN([C@H](C)c3ccc(F)cc3Cl)CC2)cc1F (single isomer, unassigned) [Example 246]"
5,10,"C[C@@H](c1ccc(OC(F)(F)F)cc1)N1CCC(C)(COc2cc(F)c(C(=O)NS(C)(=O)=O)cc2C2CC2)CC1 (single isomer, unassigned) [Example 248]"
6,39,"C[C@H](c1ccc(OC(F)(F)F)cc1)N1CCC(C)(COc2cc(F)c(C(=O)NS(C)(=O)=O)cc2C2CC2)CC1 (single isomer, unassigned) [Example 249]"
7,43,"C[C@H](c1cccc(F)c1)N1CCC(C)(COc2cc(F)c(C(=O)NS(C)(=O)=O)cc2C2CC2)CC1 (single isomer, unassigned) [Example 250]"
8,49,"C[C@@H](c1cccc(F)c1)N1CCC(C)(COc2cc(F)c(C(=O)NS(C)(=O)=O)cc2C2CC2)CC1 (single isomer, unassigned) [Example 251]"
9,20,"COC[C@H](c1cccc(Cl)c1)N1CCC(COc2cc(F)c(C(=O)NS(C)(=O)=O)cc2C2CC2)CC1 (single isomer, unassigned) [Example 263]"
10,9.2,"COC[C@@H](c1ccc(Cl)c(Cl)c1)N1CCC(COc2cc(F)c(C(=O)NS(C)(=O)=O)cc2C2CC2)CC1 (single isomer, unassigned) [Example 264]"
11,100,"COC[C@H](c1ccc(Cl)c(Cl)c1)N1CCC(COc2cc(F)c(C(=O)NS(C)(=O)=O)cc2C2CC2)CC1 (single isomer, unassigned) [Example 265]"
12,3.7,"C[C@H](c1cc(Cl)cc(Cl)c1)N1CCC(COc2cc(F)c(C(=O)NS(=O)(=O)N3CCC3)cc2C2CC2)CC1 (single isomer, unassigned) [Example 271]"
13,4.2,"C[C@@H](c1cc(Cl)cc(Cl)c1)N1CCC(COc2cc(F)c(C(=O)NS(=O)(=O)N3CCC3)cc2C2CC2)CC1 (single isomer, unassigned) [Example 272]"
14,5.7,"C[C@H](c1cc(Cl)cc(C(F)(F)F)c1)N1CCC(COc2cc(F)c(C(=O)NS(C)(=O)=O)cc2C2CC2)CC1 (single isomer, unassigned) [Example 276]"
15,4,"C[C@@H](c1cc(Cl)cc(C(F)(F)F)c1)N1CCC(COc2cc(F)c(C(=O)NS(C)(=O)=O)cc2C2CC2)CC1 (single isomer, unassigned) [Example 277]"
16,3.3,"C[C@H](c1cc(Cl)cc(C(F)(F)F)c1)N1CCC(C)(COc2cc(F)c(C(=O)NS(C)(=O)=O)cc2C2CC2)CC1 (single isomer, unassigned) [Example 278]"
17,4,"C[C@@H](c1cc(Cl)cc(C(F)(F)F)c1)N1CCC(C)(COc2cc(F)c(C(=O)NS(C)(=O)=O)cc2C2CC2)CC1 (single isomer, unassigned) [Example 279]"
18,3.5,"CCS(=O)(=O)NC(=O)c1cc(C2CC2)c(OCC2(C)CN([C@H](C)c3cc(Cl)cc(Cl)c3)C2)cc1F (single isomer, unassigned) [Example 288]"
19,3.5,"CCS(=O)(=O)NC(=O)c1cc(C2CC2)c(OCC2(C)CN([C@@H](C)c3cc(Cl)cc(Cl)c3)C2)cc1F (single isomer, unassigned) [Example 289]"
20,10.8,"CS(=O)(=O)NC(=O)c1cc(C2CC2)c(O[C@@H]2CCCN([C@H](c3ccc(F)cc3Cl)C(F)(F)F)C2)cc1F (single isomer, unassigned) [Example 297]"
21,4.6,"CS(=O)(=O)NC(=O)c1cc(C2CC2)c(O[C@@H]2CCCN([C@@H](c3ccc(F)cc3Cl)C(F)(F)F)C2)cc1F (single isomer, unassigned) [Example 298]"
